Results from US20030096831A1, “Ocular growth and nicotinic antagonists” (priority 2000, published 2003).
Values joined by “and” are separate entries in the source; they are usually repeats but may differ in a detail not shown here. Identical values can stand only once. “Also recorded” adds a separate entry of the source. Counter-ions that a name gives are not always drawn.

Key:
[1] = system: chick eye (intraocular muscles, refraction, ocular dimensions); assay: Acute drug effects after a single intravitreal injection (pupil, refractometry, ultrasonography); type: in vivo, chicks
Description: Acute drug effects. To assess acute drug effects, other two-week old chicks (n=5/group) received a single unilateral intravitreal injection of one of the nicotinic antagonists at doses chosen based on drug effects on the growth of goggled eyes: 200 μg chlorisondamine, 50 μg and 1 μg mecamylamine, 5 μg methyllycaconitine or […] dihydro-β-erythroidine. Just before and at two hours and 24 hours after injection, both eyes were examined by refractometry and ultrasonography by the above methods.

[2] = system: goggled eyes (form-deprivation myopia); assay: Form-deprivation myopia in unilaterally goggled chicks, intravitreal drug for one week; conditions: for axial length measured by digital calipers, goggled eyes, drug effect / axial length measured by ultrasound, goggled eyes, drug effect / equatorial diameter measured by calipers (equatorial expansion of vitreous cavity), goggled eyes, drug effect / vitreous cavity length measured by ultrasound, goggled eyes, drug effect / refraction of goggled eyes (myopic refractive error), drug effect: difference goggled vs contralateral open eye, ANOVA over all doses
[3] = system: retina, retinal pigment epithelium, choroid; assay: Histopathological effects on goggled and never-goggled eyes; type: in vivo, chicks; conditions: 200 or 50 μg daily, one week; goggled and non-goggled eyes
Description: Histopathological effects. To identify potential histopathologic effects in other groups of monocularly deprived or never-goggled one-week old chicks, chlorisondamine (200 or 100 μg every other day; n=5-6/group), mecamylamine (200 or 50 μg daily; n=5-8/group) or saline vehicle (n=3-9/group) was administered by intravitreal injection to the goggled eyes or to one of the open eyes of never-goggled chicks with vehicle to the contralateral eye, using the identical protocol as above. After one week of treatment, the above protocols provided refraction, ultrasound and caliper measurements. The eyes were then immersion fixed in 3% glutaraldehyde/0.5% paraformaldehyde in 0.1M phosphate buffer, pH 7.4. The posterior segments were either embedded in paraffin, cut at 5 μm thickness and stained with hematoxylin and eosin, or embedded in historesin, cut at 3 μm or 5 μm thickness and stained with 0.5% azure II/0.5% methylene blue in 1% borate.

[4] = system: non-goggled eyes; assay: Eye growth and refraction of non-goggled (open) eyes, intravitreal drug for one week; conditions: daily intravitreal injections, one week, doses of 50, 10 or 1 μg
[5] = two hours after single intravitreal injection of 50 μg
[6] = intravitreal, one week, hydrobromide
[7] = intravitreal, one week, listed as Dihydro-β-erythroidine, hydrobromide
[8] = goggled chicks, P<0.05, dose groups that differ

CCN1C[C@]2(COC(=O)c3ccccc3N3C(=O)C[C@H](C)C3=O)CC[C@H](OC)[C@@]34[C@@H]5C[C@H]6[C@H](OC)[C@@H]5[C@](O)(C[C@@H]6OC)[C@](O)([C@@H](OC)[C@H]23)[C@@H]14 [methyllycaconitine, methyllcaconitine citrate]
pupil diameter, change from baseline ([1]; two hours after single intravitreal injection of 5 μg): 0.4±0.2 mm
anterior chamber depth of goggled eyes, drug effect ([2]; intravitreal, one week, ANOVA): no effect

Br.COC1CC=C2CCN3CCC4=C(CC(=O)OC4)C23C1 (stereo not drawn) [dihydro-β-erythroidine, dihydro-β-crythroidine hydrobromide]
pupil diameter, change from baseline [1, 5]: 1.0±0.1 mm
axial length measured by digital calipers, goggled eyes, drug effect ([2]; intravitreal, one week): significant reduction
axial length measured by ultrasound, goggled eyes, drug effect ([2]; intravitreal, one week): none of the differences in refraction, ultrasound measurements or caliper measurements of the equatorial diameter reached statistical significance
equatorial diameter measured by calipers (equatorial expansion of vitreous cavity), goggled eyes, drug effect ([2]; intravitreal, one week): none of the differences in refraction, ultrasound measurements or caliper measurements of the equatorial diameter reached statistical significance
vitreous cavity length measured by ultrasound, goggled eyes, drug effect ([2]; intravitreal, one week): none of the differences in refraction, ultrasound measurements or caliper measurements of the equatorial diameter reached statistical significance
refraction of goggled eyes (myopic refractive error), drug effect [2, 6]: had no effect on the refraction of visually deprived eyes
refraction of goggled eyes (myopic refractive error), drug effect [2, 7]: none of the differences in refraction, ultrasound measurements or caliper measurements of the equatorial diameter reached statistical significance
Caliper measurements axial length: statistically significant post hoc pairwise comparisons (Tukey test) [2, 8]: no individual drug dose was identified
overall effect on excessive ocular growth / experimental myopia of goggled eyes [2, 6]: weaker as only the axial measurements by calipers showed a statistically significant drug effect
overall effect on excessive ocular growth / experimental myopia of goggled eyes [2, 7]: only a weak effect against experimental myopia

CNC1(C)C2CCC(C2)C1(C)C (centres unmarked) [mecamylamine]
pupil diameter, change from baseline ([1]; 24 hours after single intravitreal injection of 50 μg): 0.4±0.1 mm
pupil diameter, change from baseline ([1]; two hours after single intravitreal injection of 1 μg): 0.8±0.2 mm
pupil diameter, change from baseline [1, 5]: 0.3±0.1 mm
retinas, gross and histological appearance [3]: indistinguishable grossly or histologically from vehicle treated control eyes
growth or refraction of non-goggled eyes [4]: no influence
induced myopia (refraction) of goggled eyes at the 50 μg dose ([2]; 50 μg daily intravitreal, one week): virtually eliminated the induced myopia
axial length measured by digital calipers, goggled eyes, drug effect ([2]; intravitreal, one week): no statistical effect
axial length measured by ultrasound, goggled eyes, drug effect ([2]; intravitreal, one week): only a trend towards a drug effect
equatorial diameter measured by calipers (equatorial expansion of vitreous cavity), goggled eyes, drug effect ([2]; intravitreal, one week): influenced
refraction of goggled eyes (myopic refractive error), drug effect ([2]; intravitreal, one week): altered refraction of goggled eyes; also recorded: influenced the myopic refraction occurring beneath a goggle
vitreous cavity length measured by ultrasound, goggled eyes, drug effect ([2]; intravitreal, one week): influenced the ultrasound measurements of vitreous cavity length
Caliper measurements equatorial diameter: statistically significant post hoc pairwise comparisons (Tukey test) [2, 8]: did not identify any individual doses that differed from the controls
Ultrasound measurements vitreous cavity depth: statistically significant post hoc pairwise comparisons (Tukey test) [2, 8]: 50 μg vs. 1 μg
refraction: statistically significant post hoc pairwise comparisons (Tukey test) [2, 8]: only the 50 μg dose differed significantly from the controls and 200 μg vs. 1 μg and 100 μg vs. 1 μg
Ultrasound measurements vitreous cavity depth: statistically significant post hoc pairwise comparisons (Tukey test) ([2]; goggled chicks, P<0.05, dose groups that differ, listed as Mecamylamine): the 1 μg dose as different from the 50 μg dose but not from the controls
overall effect on excessive ocular growth / experimental myopia of goggled eyes ([2]; intravitreal, one week): multiphasic response that differed between the low and high drug doses; also recorded: reduced the excessive ocular growth occurring beneath a goggle
growth and myopic refractive shift of goggled eyes at the lowest doses ([2]; lowest doses (1 and 10 μg) daily intravitreal): tended toward stimulating the growth and myopic refractive shift of goggled eyes
